# In PubChem BioAssay (NCI):
#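 Each compound was tested at five concentrations against cells in 96-well plates for 48 hours. TGI marks complete inhibition of growth.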
# How the values were obtained:
# Test in all cases: NCI anticancer screen, dose series, 48 h
# [1] = test system: HCT-116 colon
# [2] = test system: MDA-MB-231 breast
# [3] = test system: OVCAR-3 ovarian
# [4] = test system: LOX IMVI melanoma
# [5] = test system: CAKI-1 renal
# [6] = test system: SR leukemia
# [7] = test system: CCRF-CEM leukemia
# [8] = test system: UACC-62 melanoma
# [9] = test system: SK-MEL-5 melanoma
# [10] = test system: MCF7 breast
# [11] = test system: MDA-N
# [12] = test system: HL-60(TB) leukemia
# [13] = test system: UACC-257 melanoma
# [14] = test system: M14 melanoma
# [15] = test system: SN12C renal
# [16] = test system: DU-145 prostate
# [17] = test system: T-47D breast
# [18] = test system: HCC-2998 colon
# [19] = test system: SW-620 colon
# [20] = test system: PC-3 prostate
# [21] = test system: SNB-19 CNS
# [22] = test system: SF-268 CNS
# [23] = test system: MOLT-4 leukemia
# [24] = test system: UO-31 renal
# [25] = test system: SF-539 CNS
# [26] = test system: BT-549 breast
# [27] = test system: SK-MEL-2 melanoma
# [28] = test system: OVCAR-8 ovarian
# [29] = test system: ACHN renal
# [30] = test system: HS 578T breast
# [31] = test system: SK-MEL-28 melanoma
# [32] = test system: HT29 colon
# [33] = test system: OVCAR-5 ovarian
# [34] = test system: NCI-H23 lung
# [35] = test system: SF-295 CNS
# [36] = test system: KM12 colon
# [37] = test system: IGROV1 ovarian
# [38] = test system: 786-0 renal
# [39] = test system: COLO 205 colon
# [40] = test system: NCI-H522 lung
# [41] = test system: EKVX NSCLC
# [42] = test system: TK-10 renal
# [43] = test system: HCT-15 colon
# [44] = test system: NCI-H226 lung
# [45] = test system: RXF 393 renal
# [46] = test system: NCI/ADR-RES ovarian
# [47] = test system: HOP-92 NSCLC
# [48] = test system: HOP-62 NSCLC
# [49] = test system: NCI-H460 lung
# [50] = test system: A549 NSCLC
# [51] = test system: MDA-MB-435
# [52] = test system: OVCAR-4 ovarian
# [53] = test system: K-562 leukemia
# [54] = test system: SK-OV-3 ovarian
# [55] = test system: A498 renal
# [56] = test system: U251 CNS
structure (smiles),measurement,setting,value
CCN1C(Cl)=NS(=O)(=O)c2ccccc21,TGI,[1],74 µM
same,TGI,[2],65.1 µM
same,TGI,[3],34.8 µM
same,TGI,[4],36.7 µM
same,TGI,[5],4.31 µM
same,TGI,[6],> 100 µM
same,TGI,[7],81 µM
same,TGI,[8],25.6 µM
same,TGI,[9],33.1 µM
same,TGI,[10],> 100 µM
same,TGI,[11],> 100 µM
same,TGI,[12],87.2 µM
same,TGI,[13],80.8 µM
same,TGI,[14],32.8 µM
same,TGI,[15],37.9 µM
same,TGI,[16],> 100 µM
same,TGI,[17],78.6 µM
same,TGI,[18],45.7 µM
same,TGI,[19],> 100 µM
same,TGI,[20],> 100 µM
same,TGI,[21],> 100 µM
same,TGI,[22],> 100 µM
same,TGI,[23],> 100 µM
same,TGI,[24],32.1 µM
same,TGI,[25],35.9 µM
same,TGI,[26],44 µM
same,TGI,[27],> 100 µM
same,TGI,[28],> 100 µM
same,TGI,[29],34.1 µM
same,TGI,[30],> 100 µM
same,TGI,[31],> 100 µM
same,TGI,[32],> 100 µM
same,TGI,[33],76 µM
same,TGI,[34],52.5 µM
same,TGI,[35],> 100 µM
same,TGI,[36],> 100 µM
same,TGI,[37],> 100 µM
same,TGI,[38],64.6 µM
same,TGI,[39],32.5 µM
same,TGI,[40],24.6 µM
same,TGI,[41],53.7 µM
same,TGI,[42],37 µM
same,TGI,[43],35.2 µM
same,TGI,[44],55.7 µM
same,TGI,[45],32.2 µM
same,TGI,[46],85.2 µM
same,TGI,[47],42.1 µM
same,TGI,[48],70.1 µM
same,TGI,[49],64.7 µM
same,TGI,[50],> 100 µM
same,TGI,[51],> 100 µM
same,TGI,[52],47.8 µM
same,TGI,[53],39.3 µM
same,TGI,[54],> 100 µM
same,TGI,[55],44.6 µM
same,TGI,[56],> 100 µM
